In patent publication US20070050862A1, “Promoter and methods of use in plants” (priority 2005, published 2007):

Key:
Type in all cases: in vivo, Arabidopsis thaliana
AtCel5-GUS expression = experiment: GUS activity in roots of transgenic AtCel5-GUS seedlings (fluorometric MUG assay); conditions: for Relative activity (GUS activity relative to controls): overlaid 24 hours with 10 ml of 100 μM ABA, fitted slope ± standard error
Procedure: To investigate the influence of indole-3-acetic acid (IAA; Sigma) plants were grown under liquid conditions as well as vertical plates. In all experiments the roots were separated from the shoots, frozen in liquid Nitrogen, and stored at −80° C. prior to analysis. […] Seeds were cold treated for 4 days at 4° C. to promote even germination. Liquid cultures were placed on a rotary shaker at 120 rpm and grown under 24 hours of fluorescent light at room temperature. […] Plates were transferred to the light incubator for 10 days and set in a vertical position. The inhibitory effect of NPA on root gravity perception was examined by observing the direction of root growth in plates set in a horizontal position.
For analysis of the effects of ABA, a 100 mM ABA stock solution was prepared in 100% ethanol (13.22 mg ABA/0.5 ml) and then diluted 1000× in water. Seeds expressing AtCel5-GUS were plated on agar basal medium and grown for 7 and 10 days. Under sterile conditions, plates with seedlings were opened and 10 ml of 100 μM ABA was added to bathe the seedlings. Plates were then set horizontally in the light incubator for 24 hours.
Quantification of GUS activity was performed according to the method of Jefferson et al. (1987) using the fluorogenic substrate MUG (4-methyl-umbelliferyl-β-D-glucuronide). Only root tissue was used to analyze GUS activity. Tissues were ground in MUG extraction buffer and centrifuged for 5 minutes, at maximal speed in a microfuge, to clear the supernatant. An aliquot of crude extract containing the same number of root tips per treatment was mixed with the MUG reaction buffer containing 2 mM MUG and incubated at 37° C. Five or six aliquots were taken from the enzyme reaction at 60 minute intervals. At each time point, the reaction was stopped with 0.2 M Na2CO3. Fluorescence was determined using a one-channel fluorometer (Turner Designs Picofluor) with an excitation range of 365-395 nm and emission wavelengths of greater than 430 nm. The fitted linear slope (±standard error) of fluorescence vs. incubation time was used as a relative measure of GUS content for comparison of controls and treatments.

AtCel5 transcript = experiment: RT-PCR of AtCel5 transcript in roots, normalized to KOR; conditions: 10 μM ACC
Procedure: For comparative RT-PCR analysis of roots exposed to various treatments, or the analysis of expression of the AtCel5 duplicon, a two-step RT-PCR was performed using the Retroscript kit (Ambion, Austin, Tex.). Total root RNA was pretreated with DNAse prior to reverse transcription (Ambion DNA-free kit). The first strand cDNA was prepared with oligo dT primers and used as template for PCR reactions. RT-PCR was normalized using Actin-11 or KOR as internal standards. […] Each cycle included a denaturation and an extension step at 94° C. for 45 seconds, and at 72° C. for 70 seconds, respectively. The annealing step was carried out for 30 seconds at the temperature optimal for each primer pair: • AtCel5 (set II), 58° C.; KOR, 62° C.; Actin-11, 60° C.; AtCel3, 65° C.

[1] = tested on: AtCel5-GUS expression in the root cap; experiment: Histochemical GUS staining of AtCel5-GUS seedlings
Procedure: For analysis of ethylene regulation, seeds expressing AtCel5-GUS were plated on agar containing half-strength MS medium supplemented with 10 μM of 1 aminocyclo-propane-1 carboxylic acid (ACC; Sigma), made from a stock (1000×) prepared in water. […]
Plant tissues were collected in 90% acetone and incubated on ice for at least 10 min. Tissues were rinsed with 50 mM NaPO4 pH 7.2, […] and […] and then placed in staining solution (2 mM 5-bromo-4-chloro-3-indolyl-β-D-[…] [X-Glu; Sigma] in rinse solution), vacuum infiltrated for 10 minutes and finally incubated at 37° C. for 2 hours or overnight. Seedlings were examined using a microscope and photographed with a Digital Nikon 990 Camera.

**Q.** Which “AtCel5 expression after ABA treatment” value (AtCel5-GUS expression; 24 hour ABA treatment, both experiments, vs control) does the source give for CC1=CC(=O)CC(C)(C)C1(O)/C=C/C(C)=C\C(=O)O (stereo not drawn) [ABA, abscissic acid] here?
**A.** reduced by almost half

**Q.** What about the “Relative activity (GUS activity relative to controls)” value (AtCel5-GUS expression; Experiment number 1: seedlings 7 days post-germination) of the same compound?
**A.** 0.53 ± 0.04

**Q.** What about the “Relative activity (GUS activity relative to controls)” value (AtCel5-GUS expression; Experiment number 2: seedlings 10 days post germination) of the same compound?
**A.** 0.42 ± 0.06

**Q.** NC1(C(=O)O)CC1 [ACC, 1 aminocyclo-propane-1 carboxylic acid] was tested. Which “AtCel5 transcript, control vs treated roots” value (AtCel5 transcript) did it give?
**A.** no significant changes

**Q.** What about the “AtCel5-GUS expression once growth stalled” value ([1]; after 10 days on ACC plates, staining reappeared on fresh media without ACC) of the same compound?
**A.** disappeared

**Q.** And the “GUS staining in the root cap” value ([1]; seedlings grown for 10 days on MS plates containing 10 μM ACC)?
**A.** still observed

**Q.** Which results are given for O=C(O)Cc1c[nH]c2ccccc12 [IAA, indole-3-acetic acid]?
**A.** Quantitative GUS activity in roots compared to controls (AtCel5-GUS expression; agar plates supplemented with 10 μM IAA): large decrease; GUS activity compared to controls (AtCel5-GUS expression; seedlings grown on liquid MS containing IAA (50 μM)): greatly reduced

**Q.** Which “Quantitative GUS activity in roots compared to controls” value (AtCel5-GUS expression; agar plates supplemented with 1 μM NPA) does the source give for O=C(O)c1ccccc1C(=O)Nc1cccc2ccccc12 [NPA, N-1-naphthylphthalamic acid] here?
**A.** large decrease
